These results are taken from US9926284B2, “Substituted N-(1,2,4-triazol-3-yl)Arylcarboxamide compounds and their use as herbicides” (BASF SE, priority 2013, dated 2018).

Common to all, as to format: in vivo
Assay [1] has as its system Alopecurus agrestis. In words: greenhouse post-emergence treatment, herbicidal activity. As to conditions: 1000 g/ha, scale 0 to 100. An excerpt:
(§1) The seeds of the test plants were sown separately for each species. For the post-emergence treatment, the test plants were first grown to a height of 3 to 15 cm, depending on the plant habit, and only then treated with the active ingredients which had been suspended or emulsified in water. For this purpose, the test plants were either sown directly and grown in the same containers, or they were first grown separately as seedlings and transplanted into the test containers a few days prior to treatment. Depending on the species, the plants were kept at 10-25° C. or 20-35° C. The test period extended over 2 to 4 weeks. During this time, the plants were tended, and their response to the individual treatments was evaluated. Evaluation was carried out using a scale from 0 to 100. 100 means no emergence of the plants, or complete destruction of at least the aerial moieties, and 0 means no damage, or normal course of growth. A good herbicidal activity is given at values of at least 70 and a very good herbicidal activity is given at values of at least 85. The plants used in the greenhouse experiments belonged to the following species: [table]

The subject of assay [2] is Setaria viridis. The assay is described as above. As to conditions: 1000 g/ha, scale 0 to 100.
Excerpt: as §1

The subject of assay [3] is Echinochloa crus-galli. The assay is described as above. The settings on record: 1000 g/ha, scale 0 to 100.
Excerpt: as §1

For assay [4], the system named is Abutilon theophrasti. The description is as above. As to conditions: 1000 g/ha, scale 0 to 100.
Excerpt: as §1

Assay [5] relates to Amaranthus retroflexus. The description is as above. The settings on record: 1000 g/ha, scale 0 to 100.
Excerpt: as §1

The test system of assay [6] is Setaria faberi. In words: greenhouse pre-emergence treatment, herbicidal activity. The settings on record: pre-emergence (values labeled *), 1000 g/ha, scale 0 to 100. An excerpt: (§2) The seeds of the test plants were sown separately for each species. For the pre-emergence treatment, the active ingredients, which had been suspended or emulsified in water, were applied directly after sowing by means of finely distributing nozzles. The containers were irrigated gently to promote germination and growth and subsequently covered with transparent plastic hoods until the plants had rooted. This cover caused uniform germination of the test plants, unless this has been impaired by the active ingredients. Depending on the species, the plants were kept at 10-25° C. or 20-35° C. The test period extended over 2 to 4 weeks. During this time, the plants were tended, and their response to the individual treatments was evaluated. Evaluation was carried out using a scale from 0 to 100. 100 means no emergence of the plants, or complete destruction of at least the aerial moieties, and 0 means no damage, or normal course of growth. A good herbicidal activity is given at values of at least 70 and a very good herbicidal activity is given at values of at least 85. The plants used in the greenhouse experiments belonged to the following species: [table]

The subject of assay [7] is Echinochloa crus-galli. The assay is described as above. The settings on record: pre-emergence (values labeled *), 1000 g/ha, scale 0 to 100.
Excerpt: as §2

Assay [8] relates to Abutilon theophrasti. The description is as above. The settings on record: pre-emergence (values labeled *), 1000 g/ha, scale 0 to 100.
Excerpt: as §2

Assay [9] concerns Agrostis spica-venti. The description is as above. The settings on record: pre-emergence (values labeled *), 1000 g/ha, scale 0 to 100.
Excerpt: as §2

The test system of assay [10] is Amaranthus retroflexus. The description is as above. The settings on record: pre-emergence (values labeled *), 1000 g/ha, scale 0 to 100.
Excerpt: as §2

Assay [11] deals with Avena fatua. In words: greenhouse post-emergence treatment, herbicidal activity. The settings on record: 1000 g/ha, scale 0 to 100.
Excerpt: as §1

SMILES strings stand for the structures. Marks after values point to notes of the source that are not given here.

Take `Cn1cnnc1NC(=O)c1c(F)cc(Cl)c(S(C)(=O)=O)c1Cl` [cpd. 5, 2,4-dichloro-6-fluoro-3-methylsulfonyl-N-(4-methyl-1,2,4-triazol-3-yl)benzamide]: in assay [1], the “damage [%] in weed species II (ALOMY)” value is given as 85%. The “damage [%] in weed species VIII (SETVI)” value in [2] came out at 95%. The figures for the “damage [%] in weed species VI (ECHCG)” value in assay [3] and in assay [7] were 98% and 80%, respectively. Besides, the “damage [%] in weed species I (ABUTH)” value in assay [4] was found to be 98%; in [8], 80%. Further, the “damage [%] in weed species III (AMARE)” value in [5] was found to be 90%; in [10], 85%. For the same compound, the “damage [%] in weed species VII (SETFA)” value in [6] is given as 85* %. Moreover, the “damage [%] in weed species IV (APESV)” value in [9] is listed as 70* %.
In the case of `CCn1cnnc1NC(=O)c1c(F)cc(Cl)c(S(C)(=O)=O)c1Cl` [cpd. 2, 2,4-dichloro-N-(4-ethyl-1,2,4-triazol-3-yl)-6-fluoro-3-methyl-sulfonyl-benzamide], the “damage [%] in weed species VIII (SETVI)” value in assay [2] amounted to 100%. Also, the “damage [%] in weed species VI (ECHCG)” value in [3] was 90%; in assay [7], 98%. Further, the “damage [%] in weed species I (ABUTH)” value in assay [4] is recorded as 100%. Also, the “damage [%] in weed species V (AVEFA)” value in assay [11] amounted to 75%. The “damage [%] in weed species III (AMARE)” value in assay [5] was found to be 75%; in [10] it was 95%. The “damage [%] in weed species VII (SETFA)” value in assay [6] was 85* %. The “damage [%] in weed species IV (APESV)” value in assay [9] is given as 80* %.
For `CSc1c(Cl)cc(F)c(C(=O)Nc2nncn2C)c1Cl` [cpd. 4, 2,4-dichloro-6-fluoro-3-methylsulfanyl-N-(4-methyl-1,2,4-triazol-3-yl)benzamide], the “damage [%] in weed species II (ALOMY)” value in assay [1] is given as 90%. The “damage [%] in weed species VIII (SETVI)” value in [2] turned out to be 100%. Moreover, the “damage [%] in weed species VI (ECHCG)” value in assay [3] is 95%. The “damage [%] in weed species I (ABUTH)” value in [4] stood at 100%; in assay [8] it was 70%. In assay [11], the “damage [%] in weed species V (AVEFA)” value was determined as 90%. Further, the “damage [%] in weed species III (AMARE)” value in assay [5] is on record as 100, 100* %; in [10], 100, 100* %. Besides, in [6], the “damage [%] in weed species VII (SETFA)” value was 70* %. Moreover, the “damage [%] in weed species IV (APESV)” value in assay [9] is on record as 70* %.
For `CCn1cnnc1NC(=O)c1c(F)cc(Cl)c(SC)c1Cl` [cpd. 3, 2,4-dichloro-N-(4-ethyl-1,2,4-triazol-3-yl)-6-fluoro-3 methyl-sulfanyl-benzamide], the “damage [%] in weed species VIII (SETVI)” value in [2] came out at 100%. Also, the “damage [%] in weed species VI (ECHCG)” value in assay [3] is 98%; in [7] it was 75%. In addition, the figures for the “damage [%] in weed species I (ABUTH)” value in [4] and in assay [8] were 100% and 90%, respectively. Further, in assay [11], the “damage [%] in weed species V (AVEFA)” value is on record as 80%. Also, the “damage [%] in weed species III (AMARE)” value in [5] was 100%; in [10], 90%. Besides, the “damage [%] in weed species VII (SETFA)” value in assay [6] is recorded as 70* %.
